US11090386B2, “Method for suppressing bitterness of quinoline derivative” (Eisai R&D Management Co., Ltd., priority 2015, dated 2021)
Counter-ions that a name gives are not always drawn.

Legend:
[1] = Bitterness measurement with taste perception apparatus, relative bitterness to Comparative Example 1; format: physicochemical; conditions: AC0 taste sensor; lenvatinib mesylate 9.8 mg/mL (8 mg/mL free form) in 10 mM potassium chloride aqueous solution, additive added, stirred 30 minutes, supernatant; average of three measurements
Experimental: Herein, the “bitterness” of Compound 1 or the pharmaceutically acceptable salt thereof is measured by the following method. A solution of Compound 1 at a concentration of 8 mg/mL as a free form is prepared by dissolving Compound 1 or the pharmaceutically acceptable salt thereof in a 10 mM potassium chloride aqueous solution. To the thus obtained solution, an additive is added if necessary, and the resultant is stirred for 30 minutes and then centrifuged to give a liquid phase component. The bitterness of the liquid phase component is measured using a taste sensor (ACO) for measuring bitterness, and the thus obtained value is used as a bitterness index. […]
The measurement with the taste perception apparatus was performed four times on each sample, and three measurement results of the second to fourth measurements were used for the analysis. […] It is noted that the relative bitterness was calculated using merely data obtained through a series of continuous measurements. Relative bitterness to Comparative Example 1(%)=(Measured value of each sample−Measured value of 10 mM potassium chloride aqueous solution)/(Measured value of Comparative Example 1—Measured value of 10 mM potassium chloride aqueous solution)×100%

[2] = Relative comparison of bitterness with taste perception apparatus (relative to Reference Example 7); conditions: aqueous solution of lenvatinib mesylate at a concentration of 1.225 mg/mL or more
Experimental: Herein, the “bitterness” of Compound 1 or the pharmaceutically acceptable salt thereof is measured by the following method. A solution of Compound 1 at a concentration of 8 mg/mL as a free form is prepared by dissolving Compound 1 or the pharmaceutically acceptable salt thereof in a 10 mM potassium chloride aqueous solution. To the thus obtained solution, an additive is added if necessary, and the resultant is stirred for 30 minutes and then centrifuged to give a liquid phase component. The bitterness of the liquid phase component is measured using a taste sensor (ACO) for measuring bitterness, and the thus obtained value is used as a bitterness index.
As a blank solution for correction, a 10 mM potassium chloride aqueous solution was subjected to the measurement. […] Relative bitterness to Reference Example 7 was calculated in accordance with the following expression, and an average of the three measurement values is shown in Table 4 and FIG. 1. It is noted that the relative bitterness was calculated using merely data obtained through a series of continuous measurements. Relative bitterness to Reference Example 7(%)=(Measured value of each sample−Measured value of 10 mM potassium chloride aqueous solution)/(Measured value of Reference Example 7—Measured value of 10 mM potassium chloride aqueous solution)×100%

| Relative Bitterness to Comparative Example 1 (%) [1] [%] | SMILES | bitterness compared with a 0.1 mM quinine hydrochloride aqueous solution [2] |
| --- | --- | --- |
| 100 | COc1cc2nccc(Oc3ccc(NC(=O)NC4CC4)c(Cl)c3)c2cc1C(N)=O [Comparative Example 1, Lenvatinib Mesylate] |  |
|  | COc1cc2nccc(Oc3ccc(NC(=O)NC4CC4)c(Cl)c3)c2cc1C(N)=O [lenvatinib mesylate, Lenvatinib Mesylate] | more bitter than a 0.1 mM quinine hydrochloride aqueous solution |
